# Tests used:
# Type in all cases: cell-based
# c-Rel = target: T1, c-Rel (Homo sapiens, UniProt Q04864); test: Western blot of THP-1 nuclear extracts: c-Rel
# T1 construct: a western blot assay of THP1 nuclear c-Rel, p50 and p65 proteins was carried out; endogenous in cells; host or cells: THP-1; Jurkat
# T1 sequence (Q04864 1-619): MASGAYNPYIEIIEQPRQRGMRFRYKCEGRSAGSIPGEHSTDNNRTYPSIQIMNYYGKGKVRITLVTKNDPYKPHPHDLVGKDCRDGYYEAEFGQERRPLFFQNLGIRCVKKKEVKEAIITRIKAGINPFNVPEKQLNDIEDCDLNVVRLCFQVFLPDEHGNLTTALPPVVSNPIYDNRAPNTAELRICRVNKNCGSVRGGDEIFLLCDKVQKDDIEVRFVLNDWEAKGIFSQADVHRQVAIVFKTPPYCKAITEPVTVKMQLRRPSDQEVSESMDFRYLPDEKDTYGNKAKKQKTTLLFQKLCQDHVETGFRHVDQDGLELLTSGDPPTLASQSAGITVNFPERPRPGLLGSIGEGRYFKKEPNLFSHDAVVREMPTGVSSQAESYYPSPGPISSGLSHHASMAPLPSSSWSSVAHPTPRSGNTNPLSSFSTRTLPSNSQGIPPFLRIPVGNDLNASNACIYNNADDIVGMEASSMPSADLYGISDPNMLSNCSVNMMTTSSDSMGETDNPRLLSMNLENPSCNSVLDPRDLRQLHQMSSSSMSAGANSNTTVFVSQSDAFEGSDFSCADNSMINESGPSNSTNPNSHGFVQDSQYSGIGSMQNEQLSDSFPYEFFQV
# Method: (§1) The THP-1 cell, Jurkat cell and RAW264.7 cell line were obtained from American Type Culture Collection (Manassas, Va.). The THP-1 Jurkat cells were cultured in RPMI 1640 (ATCC, Manassas, Va.), supplemented with 10% FCS (ATCC, Manassas, Va.), and 1% penicillin/Streptomycin (Gibco-BRL, New York, N.Y.). The RAW264.7 cells were cultured in DMEM (ATCC, Manassas, Va.) supplemented with 10% FCS (ATCC, Manassas, Va.), and 1% penicillin/Streptomycin (Gibco-BRL, New York, N.Y.). The cells were stimulated with human or murine recombinant IFNγ (100 ng/ml) for 10 h followed by LPS (1 μg/ml) or SAC (0.025%) CpG ([…]) in the presence or absence of Compound 50 at different concentrations for an additional incubation.
# THP-1 cells were suspended in 20 volumes of buffer A containing 10 mM KCl, 10 mM HEPES (pH 7.9), 1 mM MgCl2, 1 mM dithiothreitol (DTT), 0.1% Nonidet p40 (NP-40), and 0.5 mM phenylmethylsulfonyl fluoride (PMSF) and homogenized and centrifuged at 10,000 rpm at 4C afor 5 min. Nuclear pellets were then suspended in buffer C containing 400 mM NaCl, 20 mM HEPES 9, pH 7.9), 15 mM MgCl2, 0.2 mM EDTA, 1 mM DTT, 25% glycerol, 1 mM PMSF, and 10 ug of leupeptin, 20 ug of pepstatin, and 10 ug/ml antipain, incubated for 30 min at 4C, and centrifuged at 14,000 rpm for 20 min. The supernatants were dialyzed against buffer D containing 100 mM NaCl, 20 mM HEPES (pH 7.9), 20% glycerol, 1 mM PMSF, and 1 mM DTT.
# The 10% SDS Polyacrylamide gels (Inveitrogen) were transferred to Pure Nitrocellulose membrane (BioRed, Hercules, Calif.). The membranes were blocked with 5% milk in TBST buffer and incubated with anti-c-Rel, anti-p65, anti-p50, anti-ICSBP or anti-PU-1 antibody (all the antibodies were purchased from Santa Cruz) at a dilution of 1:500 for 1 h at room temperature or overnight at 4C. […]
# (§2) Of the transcription factors that have been analyzed, two factors, ICSBP and c-Rel, seem to be affected by Compound 4/Compound 50 treatment. […]
# p50 = test: Western blot of THP-1 nuclear extracts: p50; details: IFN-γ plus LPS or IFN-γ plus SAC, remained above non-stimulated levels
# Method: as §1
# THP-1 cells were suspended in 20 volumes of buffer A containing 10 mM KCl, 10 mM HEPES (pH 7.9), 1 mM MgCl2, 1 mM dithiothreitol (DTT), 0.1% Nonidet p40 (NP-40), and 0.5 mM phenylmethylsulfonyl fluoride (PMSF) and homogenized and centrifuged at 10,000 rpm at 4C afor 5 min. […]
# as §2
# NF-κB p50 = test: Kinetics of p50 nuclear translocation in LPS-stimulated THP1 cells (immunoblot, densitometry); details: 100 nM
# Method: Compound 50 impairs nuclear accumulation of c-Rel and slightly reduces nuclear accumulation of p50. We examined the nuclear translocation kinetics of NF-κB family members in LPS stimulated cells treated with Compound 50. THP1 cells were stimulated with LPS in either the presence or absence of 100 nM Compound 50, and the distribution of the NF-κB Rel family members was determined by immunoblotting nuclear (n.p.) extracts collected at 5 min, 15 min, 30 min, 1 h, 3 h and 6 h post-treatment. In response to LPS stimulation, p50 translocated into the nucleus as early as 5 minutes post-stimulation and accumulates as time goes on (FIG. 4, immunoblots and FIG. 5 densitometry). […] The experiment examining p65 nuclear translocation is shown in FIG. 6 (immunoblots) and FIG. 7 (densitometry). In LPS stimulated cells, p65 translocated into the nucleus as early as 5 minutes post-stimulation and accumulated to maximum levels at 15-30 minutes post-stimulation. Treatment of LPS-stimulated cells with Compound 50 had no effect on the kinetics of p65 nuclear entry.
# p52 = p52 nuclear translocation in IFNγ+LPS-stimulated THP1 cells (immunoblot); details: 100 nM, 6 h
# Method: RelB and p52 are two members of Rel family, which are preferentially complexed with each other. To determine the effect of Compound 50 on p52 and Rel-B nuclear translocation, THP1 cells were stimulated with IFNγ+LPS in either the presence or absence of 100 nM Compound 50 and the distribution of p52 and Rel-B was determined by immunoblotting of nuclear at 6 h post-treatment.
compound,measurement,setting,value
"Cc1cccc(/C=N/Nc2cc(N3CCOCC3)nc(OCCc3ccccn3)n2)c1 [Compound 50, N-(3-Methyl-benzylidene)-N′-[6-morpholin-4-yl-2-(2-pyridin-2-yl-ethoxy)-pyrimidin-4-yl]-hydrazine]",level of nuclear c-Rel,"c-Rel; THP-1 nuclear extracts, IFN-γ plus LPS or IFN-γ plus SAC, post-treatment level equal to or below non-stimulated level",significantly reduced
same,transcription factor c-Rel affected by treatment,c-Rel; of the transcription factors analyzed,affected
same,nuclear p50 levels,p50,decreased slightly
same,kinetics of p50 nuclear entry,NF-κB p50; 5 minutes to 1 hr post-stimulation,no effect
same,nuclear p50 protein levels,NF-κB p50; 3 hours,small decrease
same,nuclear p52,p52,No significant difference

# From patent US20120021434A1, “METHOD FOR TREATING B CELL REGULATED AUTOIMMUNE DISORDERS” (Synta Pharmaceuticals Corp., priority 2005, published 2012)
